Measured values taken from PMC9403987 (Frontiers in Oncology, 2022).
pIC50, pKi: −log10 of the molar value.

Legend:
U87-MG = system: U87-MG; set-up: method as in PMID 26149830; conditions: orthotopic U87-MG GBM rat xenografts; cited from earlier work
SK-MES-1 = assay: Cell proliferation assay; type: cell-based, Homo sapiens; conditions: SK-MES-1, lung carcinoma, 72 hours
Summary of the method: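 4000 cells/well, overnight 37°C/5% CO2, then compound. Readout: imaged DAPI nuclear counts (4% formaldehyde fix, 0.2% Triton X-100 perm, 1 μg/mL DAPI) or CellTiter-Glo luminescence.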

MHCC97L = assay: Cell proliferation assay; type: cell-based; conditions: Homo sapiens, liver, hepatocellular carcinoma, 72 hours
BNL CL.2 = assay: Cell proliferation assay; type: cell-based, Mus musculus; conditions: BNL CL.2, liver, normal, 72 hours
Protocol: (§1) To quantify cell proliferation, either the nuclei of live cells were counted following staining with 4’,6-diamidino-2-phenylindole (DAPI; Sigma-Aldrich, Burlington, MA, USA), or metabolically active cells were detected using a CellTiter-Glo assay (Promega Corporation, Madison, WI, USA). Cells from a range of human and mammalian tumor cell lines (American Type Culture Collection, Manassas, VA, USA) were seeded at 4000 cells per well in 100 μL of culture medium in a 96-well plate and incubated overnight at 37°C with 5% CO2. […] In the DAPI staining method, cells were washed using 1× phosphate-buffered saline (PBS; Gibco Thermo Fisher Scientific, Waltham, MA, USA), fixed with 4% formaldehyde, permeabilized with 0.2% Triton X-100 (Sigma-Aldrich), washed again, and stained with 1 μg/mL DAPI to visualize cell nuclei. Cells were washed with 1× PBS three times, and 100 μL 1× PBS was added to each well. Plates were scanned using an IN Cell Analyzer 2200 (GE Healthcare Life Sciences, Chicago, IL, USA) and the number of cells per well was recorded. In the CellTiter-Glo assay, 60 μL of CellTiter-Glo luminescent solution was added to each well after incubation with the test compounds, and the assay plate was scanned using a Tecan Infinite M1000 PRO microplate reader (Tecan Group AG, Männedorf, Switzerland) to record luminescent signals.

4T1 = assay: Cell proliferation assay; type: cell-based, Mus musculus; conditions: 4T1, breast carcinoma, 72 hours
Protocol: as §1

Glioma 261 = assay: Cell proliferation assay; type: cell-based, Mus musculus; conditions: Glioma 261, brain, murine glioma, 72 hours
Protocol: as §1

H22 = assay: Cell proliferation assay; type: cell-based, Mus musculus; conditions: H22, liver, hepatocellular carcinoma, 72 hours
Protocol: as §1

Hepa1-6 = assay: Cell proliferation assay; type: cell-based, Mus musculus; conditions: Hepa1-6, liver, hepatocellular carcinoma, 72 hours
Protocol: as §1

Colon-26 = assay: Cell proliferation assay; type: cell-based, Mus musculus; conditions: Colon-26, colorectal carcinoma, 72 hours
Protocol: as §1

LI1088 = assay: Subcutaneous LI1088 liver cancer xenograft; type: in vivo, BALB/c nude mice; conditions: 25 mg/kg daily oral, 28 days, measured day 25
Protocol: (§2) The efficacy of GLR2007 was evaluated in human GBM and breast cancer orthotopic cell-line-derived xenografts in NOD/SCID mice (Shanghai Lingchang Biotechnology Co. Ltd, Shanghai, China) and BALB/c nude mice (Shanghai Sino-British SIPPR/BK Laboratory Animal Co. Ltd, Shanghai, China), and human lung, colorectal, and liver cancer subcutaneous cell-line-derived xenografts in BALB/c nude mice (Nanjing University National Resource Center, Nanjing, China, or Beijing Anikeeper Biotech Co., Beijing, China). Mice were maintained in humidity- and temperature-controlled conditions with food and water available ad libitum. For subcutaneous models, female BALB/c nude mice were inoculated at 4–8 weeks old with 3×10^6–1×10^7 tumor cells (see Table 1 for xenograft model cell types) in the right flank for tumor development. Randomization was performed when the mean tumor volume reached 118–171 mm^3.

[1] = Excretion of radioactivity in bile duct cannulated (BDC) rats; type: in vivo, Sprague Dawley rats
Protocol: To investigate the degree to which GLR2007 penetrated organs and tissues, and the levels of excretion of the compound, rats were dosed with radiolabeled GLR2007 and whole-body autoradiography was performed. Sprague Dawley rats (Vital River Laboratory Animal Technology Co., Beijing, China; N=38, female n=19; 8–11 weeks old) were maintained in humidity- and temperature-controlled conditions on a 12-hour light/dark cycle, with food (certified rat diet; Jiangsu Xietong Pharmaceutical Biological Engineering Co., Ltd, Jiangsu, China) and water available ad libitum. […] Urine, feces, and cage rinse/wash up to 168 hours after treatment were collected from six intact rats (three male, three female); bile, urine, feces, and cage rinse/wash up to 72 hours after treatment were collected from eight bile duct cannulated (BDC) rats (four male, four female). Heart, lung, liver, spleen, kidneys, whole brain, stomach tract wall, intestinal tract wall, skeletal muscle, body fat, reproductive organs (uterus and ovary for female rats, testis and epididymis for male rats) were collected at 2, 6, 24, and 72 hours after treatment (three male, three female per time point). The total radioactivity (TRA) of plasma, bile, urine, and cage rinse/wash samples was directly analyzed by liquid scintillation counting. Fecal and tissue homogenates and blood were combusted using a PerkinElmer Oxidizer (PerkinElmer Inc.), and the generated [^14C]CO2 was captured in ^14C scintillation cocktail (Shimadzu Corporation, Kyoto, Japan), followed by analysis using a PerkinElmer Liquid Scintillation Counter (PerkinElmer Inc.). The TRA levels determined in bile, urine, feces, and cage rinse/wash were used to calculate the percentage of the administered dose excreted. Mean TRA values of whole brain and plasma at 2, 6, 24, and 72 hours were used to calculate the area under concentration–time curve from time zero to 72 hours (AUC0–72), using a noncompartmental model in Phoenix WinNonlin v6.3 software (Certara, Princeton, NJ, USA).

CDK4–cyclin D1 = biological target: T1, CDK4–cyclin D1 (Homo sapiens, UniProt P11802); assay: LANCE Ultra TR-FRET enzymatic profiling assay; type: biochemical
T1 construct: purchased Invitrogen
T1 sequence (P11802 whole entry): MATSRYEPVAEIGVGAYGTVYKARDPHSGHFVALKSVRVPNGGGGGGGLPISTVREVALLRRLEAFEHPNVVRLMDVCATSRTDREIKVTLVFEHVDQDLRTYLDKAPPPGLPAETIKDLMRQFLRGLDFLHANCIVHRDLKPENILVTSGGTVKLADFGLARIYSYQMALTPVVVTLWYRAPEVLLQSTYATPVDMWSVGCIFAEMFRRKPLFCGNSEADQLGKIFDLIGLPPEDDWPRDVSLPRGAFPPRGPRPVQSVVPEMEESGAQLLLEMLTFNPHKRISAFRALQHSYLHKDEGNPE
T1 sequence (P24385 whole entry partner): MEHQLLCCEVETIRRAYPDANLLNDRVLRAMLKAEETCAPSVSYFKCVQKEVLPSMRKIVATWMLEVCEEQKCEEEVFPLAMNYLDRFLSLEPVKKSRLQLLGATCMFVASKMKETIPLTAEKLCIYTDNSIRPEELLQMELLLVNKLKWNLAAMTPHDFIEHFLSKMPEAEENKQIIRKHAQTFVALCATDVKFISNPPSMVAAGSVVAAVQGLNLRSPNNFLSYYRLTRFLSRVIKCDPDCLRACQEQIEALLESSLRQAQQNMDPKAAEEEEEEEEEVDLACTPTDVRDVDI
Protocol: Results were calculated as half-maximal inhibitory concentration (IC50) and inhibition constant (K i). IC50 and K i values were determined using the XLfit 205 model (ID Business Solutions Ltd, Guildford, UK) curve-fitting add-on for Microsoft Excel (Microsoft Corporation, Redmond, WA, USA).

CDK6–cyclin D1 = biological target: T2, CDK6–cyclin D1 (Homo sapiens, UniProt Q00534); assay: LANCE Ultra TR-FRET enzymatic profiling assay; type: biochemical
T2 construct: purchased Invitrogen
T2 sequence (Q00534 whole entry): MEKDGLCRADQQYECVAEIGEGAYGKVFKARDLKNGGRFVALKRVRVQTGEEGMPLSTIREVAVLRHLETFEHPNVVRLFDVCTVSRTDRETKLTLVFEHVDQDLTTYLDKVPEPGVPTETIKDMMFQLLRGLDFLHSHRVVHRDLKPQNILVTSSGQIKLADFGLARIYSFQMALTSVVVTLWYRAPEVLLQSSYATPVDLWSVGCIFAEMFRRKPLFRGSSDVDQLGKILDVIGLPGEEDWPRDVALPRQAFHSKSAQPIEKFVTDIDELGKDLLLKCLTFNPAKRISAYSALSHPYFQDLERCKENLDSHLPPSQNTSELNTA
T2 sequence (P24385 whole entry partner): as the sequence (P24385 whole entry partner) above
Protocol: Results were calculated as half-maximal inhibitory concentration (IC50) and inhibition constant (K i).

NCI-H2228 = assay: Subcutaneous NCI-H2228 non-small cell lung cancer xenograft; type: in vivo, BALB/c nude mice; conditions: 50 mg/kg daily oral, 28 days, measured day 34
Protocol: as §2

P-glycoprotein = conditions: cited from earlier work
[2] = system: breast cancer resistance protein (BCRP); conditions: cited from earlier work

For `CCN1CCN(Cc2ccc(Nc3ncc(F)c(-c4cc(F)c5nc(C)n(C(C)C)c5c4)n3)nc2)CC1` [Abemaciclib, abemaciclib, reference compound], the “Increase in survival time compared to vehicle control” value (U87-MG) is given as 37.4%, the pIC50 (SK-MES-1; Homo sapiens) is given as 6.83 and the pIC50 (MHCC97L) is given as 6.63. It also gave a pIC50 (BNL CL.2; Mus musculus) of 5.00, a pIC50 (4T1; Mus musculus) of 5.32 and a pIC50 (Glioma 261; Mus musculus) of 5.60. It also gave a pIC50 (H22; Mus musculus) of 5.45, a pIC50 (Hepa1-6; Mus musculus) of 5.90 and a pIC50 (Colon-26; Mus musculus) of less than 5.00. The “TGI (%)” value (LI1088) was 22.4%.

For `CC1=Nc2c(F)cc(-c3nc(Nc4ccc(C5CCN(C)CC5)cn4)ncc3F)cc2C12CCCC2` [GLR2007], the “Dose recovered in bile” value ([1]; BDC rats, within 72 hours) was 33.3%, the Dose recovered ([1]; BDC rats, within 72 hours, single oral 6 mg/100 μCi/kg) was 84.2% and the “Dose predicted to be absorbed” value ([1]; based on excretion in bile and urine from BDC rats) was “at least 42.4%”. The pKi (CDK4–cyclin D1; CDK4/CyD1) was greater than 10.00, the pIC50 (CDK4–cyclin D1; CDK4/CyD1, 11 concentrations in duplicates) was 9.66 and the pKi (CDK6–cyclin D1; CDK6/CyD1) was greater than 10.10. The pIC50 (CDK6–cyclin D1; CDK6/CyD1, 11 concentrations in duplicates) was 9.28, the “TGI (%)” value (NCI-H2228) was 33.9% and the “Substrate of efflux transporter P-glycoprotein” value (P-glycoprotein) was “not a substrate”. For the same compound, the pIC50 (SK-MES-1) was 7.17, the pIC50 (BNL CL.2) was 5.71 and the pIC50 (4T1) was 5.71. It also gave a pIC50 (Glioma 261) of 5.71, a pIC50 (H22) of 5.74 and a pIC50 (Hepa1-6) of 6.28. The pIC50 (Colon-26) was 5.67, the “Substrate of efflux transporter BCRP” value [2] was “not a substrate” and the “TGI (%)” value (LI1088) was 57.7%.
